Structures can show the parent of a compound that is named as a salt. Marks after values point to notes of the source that are not given here.
How the values were obtained:
[1] = tested on: rat forced swim test model (depressive-like behavior); assay: Forced swim test in dark phase (Example 4); assay type: in vivo, Sprague Dawley rats; conditions: 1 mg/kg, i.m.; versus vehicle saline
Text: Animal groups: Male Sprague Dawley (SD) rats (8-10 weeks old) were grouped housed 2 per cage in standard animal cages with facilities for pelleted food and drinking water in polycarbonate bottle with stainless steel sipper tubes. During the experimental period, animals were housed in a single experimental room. Rats were distributed in 7 different experimental groups with 9-12 rats per group as illustrated in Table 8. Animals were distributed to different groups based on body weight data. Each experimental group was also coded so that the experimenter became unaware of the true experimental group at the time FST trial.
Animals were housed in an environment-controlled room at 22±3° C. and relative humidity of 30 to 70 percent. During the study, 12/12 light/dark cycles were maintained. Lights of the acclimatization area were switched off at 06:00 PM. All experiments were carried out at ambient temperature under dark phase of lighting (between 06:00 PM to 06:00 AM). Adequate fresh air supply of 12-15 air changes/hour was maintained in the experimental room. The maximum and minimum temperature and relative humidity in the experimental rooms was recorded once daily. The relative humidity in the experimental room was calculated daily from dry and wet bulb temperature recordings.
Swim 1 was carried out between 18:30 to 21:30.
Swim 2 was carried out between 19:30 to 21:30. Animals were administered test compounds from 18:30 onwards in staggered manner 60 minutes before FST 2.
Forced swim test was carried out in dark phase
On Day 1, animals were subjected to forced swim test training for 15 minutes (Swim 1) and on Day 2, Swim 2 was carried out post treatment.
On day 2 animals were dosed with respective treatment 60 min prior to performing FST.
Forced swim test (Swim 2) was scored manually with no video recording.
Forced swim test (FST), was used to study the depressive-like behavior in rodents. The test was carried out in transparent cylindrical glass containers measuring 46 cm in height and 20 cm in diameter.
There were 2 swim sessions, 24 h apart. The first session, Swim 1 was the pretest/training stage (15 min) and the second session, Swim 2, was the test stage (8 min).
In swim 2, first 1-minute data was excluded from analysis and rest 7 minutes data was considered. In 7 minutes, data, it was divided 5 minutes and 2 minute.
Twenty-four hours after the start of Swim 1, the test swim (Swim 2) was carried out.
Rat was placed in the water-filled cylinder for 8 min (Swim 2).
The duration of time spent immobile, swimming, and climbing was observed by an observer blind to the treatment group.
Immobility period: A rat was judged to be immobile when it remained floating in the water without struggling and was making only those movements necessary to keep its head above water.
Statistical analysis: One Way ANOVA, Dunnet's multiple comparison test was applied with respect to vehicle saline and Tukey's multiple comparison test was applied to compare the data in between the groups using GraphPad Prism version 9 software.

[2] = tested on: CCK-4 induced panic anxiety in rats; assay: Elevated plus maze, CCK-4 induced panic anxiety (Example 8); assay type: in vivo, Wistar rats; conditions: for Entries, % increase as compared to CCK-4/Vehicle / Entries, Mean ± SEM / Time, % increase as compared to CCK-4/Vehicle / Time, Mean ± SEM: CCK4 0.2 mg/kg i.p.
Text: Rationale: In the past two decades panic induction with cholecystokinin-tetrapeptide (CCK-4) as an experimental model of human anxiety has become a focus of intensive research. CCK-4 is a synthetic analog of the endogenous neuropeptide cholecystokinin (CCK), which has been found in different brain regions. Particularly, high concentrations of CCK have been detected in regions that have been implicated in the mediation of panic attacks such as the cerebral cortex, amygdala, hippocampus, and brainstem nuclei. CCK-4 dose dependently induces panic attacks in healthy controls. Thus, CCK-4 has been postulated to fulfil the criteria for an ideal and valid panicogenic agent. […] Therefore, the CCK-4 challenge paradigm can serve as a useful tool to evaluate the anti-panic potential of novel anxiolytic compounds.
Animal groups: Male Wistar Rats were purchased at a body weight of 150 g and reached a body weight of about 220 g at the time of use. Animals were distributed in 6 different experimental groups with 12 […] per group as illustrated in Table 11. Each experimental group was also coded so that the experimenter became unaware of the true experimental group at the time EPM trial.
Study drugs: All compounds/drugs were prepared in saline (0.9% NaCl).
CCK-4 was prepared at a solution of 0.2 mg/ml which when injected i.p. at a dosage volume of 1 ml/kg results in a dose of 0.2 mg/kg.
Diazepam was prepared at a solution of 1 mg/ml which when injected i.p. at a dosage volume of 1 ml/kg results in a dose of 1 mg/kg.
Latrepirdine was prepared at concentrations of 2.5, 7.5, 25 and 37.5 mg/ml which when injected i.m. at a volume of 100 μL for a rat of 250 g results in doses of 1, 3, 10 and 15 mg/kg respectively.
Study design and dosing: The rats were randomly assigned to one of the different experimental groups. Each animal was identified by its group name, cage number, series (day) of experiment, and a number (from 1 to 4) written with permanent ink on its tail. They were handled by an experimenter for about 3 min each day during 1 week prior to the day of EPM trial.
The apparatus is a PVC maze covered with Plexiglas and subdivided into four equal exploratory arms (40×10 cm), which are all interconnected by a small platform (10×10 cm). The apparatus is placed 65 cm above the floor. Two arms are opened, and two others are closed with wall (high: 10 cm).
After compound administration, rat is placed on the platform opposite a closed arm. The number of entries and the time spent in each arm are recorded during a 5 min period. The animal is considered as entered in an arm when it places its four paws in the arm.
Statistical analysis: Data was analyzed using One-Way ANOVA followed by multiple comparison with Dunnett's post-hoc test. All statistical analyses were performed using GraphPad Prism software package (Version 9) and p value below 0.05 was considered as significant.

[3] = 1-15 mg/kg i.m., CCK-4 treated rats

Cc1ccc2c(c1)c1c(n2CCc2ccc(C)nc2)CCN(C)C1 [latrepirdine dihydrochloride hydrate]
increase in swimming time [1]: 9.8% | Entries, % increase as compared to CCK-4/Vehicle ([2]; 1 mg/kg i.m.): (47.37) % | Entries, Mean ± SEM ([2]; 1 mg/kg i.m.): 2.8 ± 0.4 n | Time, % increase as compared to CCK-4/Vehicle ([2]; 1 mg/kg i.m.): (83.33) % | Time, Mean ± SEM ([2]; 1 mg/kg i.m.): 24.2 ± 4.7 s | Entries, % increase as compared to CCK-4/Vehicle ([2]; 3 mg/kg i.m.): (31.58) % | Entries, Mean ± SEM ([2]; 3 mg/kg i.m.): 2.5 ± 0.2 n | Time, % increase as compared to CCK-4/Vehicle ([2]; 3 mg/kg i.m.): (98.48) % | Time, Mean ± SEM ([2]; 3 mg/kg i.m.): 26.2 ± 3.3 s | Entries, % increase as compared to CCK-4/Vehicle ([2]; 10 mg/kg i.m.): (73.68) * % | Entries, Mean ± SEM ([2]; 10 mg/kg i.m.): 3.3 ± 0.3 n | Time, % increase as compared to CCK-4/Vehicle ([2]; 10 mg/kg i.m.): (158.33) ** % | Time, Mean ± SEM ([2]; 10 mg/kg i.m.): 34.1 ± 3.4 s | Entries, % increase as compared to CCK-4/Vehicle ([2]; 15 mg/kg i.m.): (126.32) *** % | Entries, Mean ± SEM ([2]; 15 mg/kg i.m.): 4.3 ± 0.4 n | Time, % increase as compared to CCK-4/Vehicle ([2]; 15 mg/kg i.m.): (266.67) **** % | Time, Mean ± SEM ([2]; 15 mg/kg i.m.): 48.4 ± 5.3 s

Cc1ccc2c(c1)c1c(n2CCc2ccc(C)nc2)CCN(C)C1 [latrepirdine, 2,8-dimethyl-5-[2-(6-methylpyridin-3-yl)ethyl]-3,4-dihydro-1H-pyrido[4,3-b]indole]
dose with the greatest effect on entries and time in open arms [2, 3]: 15 mg/kg | number of entries to and time spent in the open arms, significance [2, 3]: significant at the doses of 10 and 15 mg/kg

— patent publication US20260325500A1, “METHODS AND COMPOSITIONS FOR TREATING ACUTE STRESS DISORDER” (BioXcel Therapeutics, Inc., priority 2022, published 2026)
